In patent US20230085307A1, “PYRIDAZINONE COMPOUND AND HERBICIDE” (NISSAN CHEMICAL CORPORATION, priority 2019, published 2023):

Tests used:
[1] = system: chickweed; assay: Test Example 5: herbicidal effect by foliage application, plastic box (Table 20, symbol P); format: in vivo, common chickweed (Stellaria media); conditions: foliage application, three weeks after application
Outline: (§1)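 Post-emergence foliar test in sterilized diluvial soil. Compound applied as water-diluted emulsion at a predetermined rate to 14-day-old plants; evaluation at three weeks.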

[2] = system: oval-leafed pondweed; assay: Test Example 2: herbicidal activity, application during weed generation under submerged conditions (Table 17, symbol C); format: in vivo, oval-leafed pondweed (Monochoria vaginalis); conditions: application during weed generation, submerged conditions
Outline: (§2)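 In this pot test, flooded alluvial soil (water depth 4 cm) holds all three species sown as a mixture. Once seedlings have one to two leaves, the compound's emulsion, thinned with water to the intended dose, is poured on the water; grading follows after three weeks on the earlier criteria.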

[3] = system: green foxtail; assay: Test Example 4: herbicidal effect by soil treatment (Table 19, symbol G); format: in vivo, green foxtail (Setaria viridis)
Outline: (§3)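 Emulsion of test compound, water-diluted to predetermined amount, sprayed on soil after sowing (seed depth ~1.5 cm, sterilized diluvial soil). Greenhouse, 25–30° C. Effect graded at three weeks post-spray.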

[4] = system: Italian ryegrass; assay: Test Example 5: herbicidal effect by foliage application, plastic box (Table 20, symbol K); format: in vivo, Italian ryegrass (Lolium multiflorum); conditions: foliage application, three weeks after application
Outline: as §1

[5] = system: late watergrass; assay: Test Example 2: herbicidal activity, application during weed generation under submerged conditions (Table 17, symbol A); format: in vivo, late watergrass (Echinochloa oryzicola); conditions: application during weed generation, submerged conditions
Outline: as §2

[6] = system: lambsquarters; assay: Test Example 4: herbicidal effect by soil treatment (Table 19, symbol O); format: in vivo, lambsquarters (Chenopodium album)
Outline: as §3

[7] = system: velvetleaf; assay: Test Example 4: herbicidal effect by soil treatment (Table 19, symbol M); format: in vivo, velvetleaf (Abutilon theophrasti)
Outline: as §3

[8] = system: windgrass; assay: Test Example 4: herbicidal effect by soil treatment (Table 19, symbol L); format: in vivo, windgrass (Apera spica-venti)
Outline: as §3

[9] = system: redroot pigweed; assay: Test Example 5: herbicidal effect by foliage application, plastic box (Table 20, symbol N); format: in vivo, redroot pigweed (Amaranthus retroflexus); conditions: foliage application, three weeks after application
Outline: as §1

[10] = system: persian speedwell; assay: Test Example 4: herbicidal effect by soil treatment (Table 19, symbol R); format: in vivo, Persian speedwell (Veronica persica)
Outline: as §3

[11] = system: rice flat sedge; assay: Test Example 3: herbicidal effect by foliage application, Wagner pot (Table 18, symbol E); format: in vivo, rice flat sedge (Cyperus iria)
Outline: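 Plants were sown in alluvial soil held under 0.1–0.5 cm standing water and grown 14 days in a greenhouse at 25–30 °C. An emulsifiable formulation, water-diluted to the set dose, was then sprayed onto the foliage, and effects were scored three weeks later using previously defined criteria.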

[12] = system: Japanese bulrush; assay: Test Example 2: herbicidal activity, application during weed generation under submerged conditions (Table 17, symbol B); format: in vivo, Japanese bulrush (Schoenoplectus juncoides); conditions: application during weed generation, submerged conditions
Outline: as §2

[13] = system: velvetleaf; assay: Test Example 5: herbicidal effect by foliage application, plastic box (Table 20, symbol M); format: in vivo, velvetleaf (Abutilon theophrasti); conditions: foliage application, three weeks after application
Outline: as §1

[14] = system: green foxtail; assay: Test Example 5: herbicidal effect by foliage application, plastic box (Table 20, symbol G); format: in vivo, green foxtail (Setaria viridis); conditions: foliage application, three weeks after application
Outline: as §1

[15] = system: late watergrass; assay: Test Example 1: herbicidal activity, application before weed generation under submerged conditions (Table 16, symbol A); format: in vivo, late watergrass (Echinochloa oryzicola)
Outline: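 Alluvial soil was flooded to 4 cm depth, weed seeds were sown mixed and 2.5-leaf rice seedlings were transplanted. On sowing day, the compound's emulsion, diluted in water to a set dose, was applied to the water surface. Plants grew at 25–30 °C and were scored 0–5 after three weeks.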

[16] = system: barnyard grass; assay: Test Example 4: herbicidal effect by soil treatment (Table 19, symbol H); format: in vivo, barnyard grass (Echinochloa crus-galli)
Outline: as §3

[17] = system: chickweed; assay: Test Example 4: herbicidal effect by soil treatment (Table 19, symbol P); format: in vivo, common chickweed (Stellaria media)
Outline: as §3

[18] = amount of applied herbicide 320 g/ha
[19] = amount of applied herbicide 323 g/ha

Structure (SMILES)	P: chickweed, herbicidal effect grade ([1]; 320 g/ha)	herbicidal effect rating, C: oval-leafed pondweed ([2]; AAH 320 g/ha)	G: green foxtail, herbicidal effect grade [3, 18]	K: Italian ryegrass, herbicidal effect grade ([4]; 320 g/ha)	herbicidal effect rating, A: late watergrass ([5]; AAH 320 g/ha)	O: lambsquarters, herbicidal effect grade [6, 18]	M: velvetleaf, herbicidal effect grade [7, 18]	L: windgrass, herbicidal effect grade [8, 18]	N: redroot pigweed, herbicidal effect grade ([9]; 320 g/ha)	R: persian speedwell, herbicidal effect grade [10, 18]	herbicidal effect on rice flat sedge (E) ([11]; 320 g/ha)	herbicidal effect rating, B: Japanese bulrush ([12]; AAH 320 g/ha)	M: velvetleaf, herbicidal effect grade ([13]; 320 g/ha)	G: green foxtail, herbicidal effect grade ([14]; 320 g/ha)	Herbicidal effect, A: late watergrass [15, 18]	H: barnyard grass, herbicidal effect grade [16, 18]	P: chickweed, herbicidal effect grade [17, 18]	further results
CCCC(=O)Oc1c(C)nn(C)c(=O)c1-c1c(-c2ccc3c(c2)OCCO3)sc2cc(OC)ccc12 [3-083]	5 (Herbicidal rate of 90% or more (almost completely withered))	4 (Herbicidal rate of 70% or more and less than 90%)	4 (Herbicidal rate of 70% or more and less than 90%)	1 (Herbicidal rate of 5% or more and less than 20%)	2 (Herbicidal rate of 20% or more and less than 40%)	3 (Herbicidal rate of 40% or more and less than 70%)	0 (Herbicidal rate of 5% or less (almost no effect))	0 (Herbicidal rate of 5% or less (almost no effect))	3 (Herbicidal rate of 40% or more and less than 70%)	5 (Herbicidal rate of 90% or more (almost completely withered))	4 (Herbicidal rate of 70% or more and less than 90%)	3 (Herbicidal rate of 40% or more and less than 70%)	3 (Herbicidal rate of 40% or more and less than 70%)	0 (Herbicidal rate of 5% or less (almost no effect))	4 (Herbicidal rate of 70% or more and less than 90%)	3 (Herbicidal rate of 40% or more and less than 70%)	5 (Herbicidal rate of 90% or more (almost completely withered))	–
CCOc1ccc2c(-c3c(O)c(C)nn(C)c3=O)c(-c3ccccc3OC)sc2c1 [3-089]	5 (Herbicidal rate of 90% or more (almost completely withered))	5 (Herbicidal rate of 90% or more (almost completely withered))	4 (Herbicidal rate of 70% or more and less than 90%)	5 (Herbicidal rate of 90% or more (almost completely withered))	4 (Herbicidal rate of 70% or more and less than 90%)	4 (Herbicidal rate of 70% or more and less than 90%)	0 (Herbicidal rate of 5% or less (almost no effect))	4 (Herbicidal rate of 70% or more and less than 90%)	5 (Herbicidal rate of 90% or more (almost completely withered))	5 (Herbicidal rate of 90% or more (almost completely withered))	5 (Herbicidal rate of 90% or more (almost completely withered))	5 (Herbicidal rate of 90% or more (almost completely withered))	5 (Herbicidal rate of 90% or more (almost completely withered))	4 (Herbicidal rate of 70% or more and less than 90%)	5 (Herbicidal rate of 90% or more (almost completely withered))	4 (Herbicidal rate of 70% or more and less than 90%)	4 (Herbicidal rate of 70% or more and less than 90%)	–
CCOc1ccc2c(-c3c(O)c(C)nn(C)c3=O)c(-c3ccccc3OCC)sc2c1 [3-093]	5 (Herbicidal rate of 90% or more (almost completely withered))	5 (Herbicidal rate of 90% or more (almost completely withered))	5 (Herbicidal rate of 90% or more (almost completely withered))	5 (Herbicidal rate of 90% or more (almost completely withered))	3 (Herbicidal rate of 40% or more and less than 70%)	4 (Herbicidal rate of 70% or more and less than 90%)	3 (Herbicidal rate of 40% or more and less than 70%)	4 (Herbicidal rate of 70% or more and less than 90%)	5 (Herbicidal rate of 90% or more (almost completely withered))	5 (Herbicidal rate of 90% or more (almost completely withered))	5 (Herbicidal rate of 90% or more (almost completely withered))	5 (Herbicidal rate of 90% or more (almost completely withered))	5 (Herbicidal rate of 90% or more (almost completely withered))	5 (Herbicidal rate of 90% or more (almost completely withered))	5 (Herbicidal rate of 90% or more (almost completely withered))	4 (Herbicidal rate of 70% or more and less than 90%)	4 (Herbicidal rate of 70% or more and less than 90%)	–
CCCC(=O)Oc1c(C)nn(C)c(=O)c1-c1c(-c2ccccc2OCC)sc2cc(OCC)ccc12 [3-094]	–	–	–	–	–	–	–	–	–	–	–	–	–	–	–	–	–	P: chickweed, herbicidal effect grade ([1]; 323 g/ha): 5 (Herbicidal rate of 90% or more (almost completely withered)); herbicidal effect rating, C: oval-leafed pondweed ([2]; AAH 323 g/ha): 4 (Herbicidal rate of 70% or more and less than 90%); G: green foxtail, herbicidal effect grade [3, 19]: 3 (Herbicidal rate of 40% or more and less than 70%); K: Italian ryegrass, herbicidal effect grade ([4]; 323 g/ha): 3 (Herbicidal rate of 40% or more and less than 70%); herbicidal effect rating, A: late watergrass ([5]; AAH 323 g/ha): 3 (Herbicidal rate of 40% or more and less than 70%); O: lambsquarters, herbicidal effect grade [6, 19]: 4 (Herbicidal rate of 70% or more and less than 90%); M: velvetleaf, herbicidal effect grade [7, 19]: 0 (Herbicidal rate of 5% or less (almost no effect)); L: windgrass, herbicidal effect grade [8, 19]: 4 (Herbicidal rate of 70% or more and less than 90%); N: redroot pigweed, herbicidal effect grade ([9]; 323 g/ha): 5 (Herbicidal rate of 90% or more (almost completely withered)); R: persian speedwell, herbicidal effect grade [10, 19]: 5 (Herbicidal rate of 90% or more (almost completely withered)); herbicidal effect on rice flat sedge (E) ([11]; 323 g/ha): 5 (Herbicidal rate of 90% or more (almost completely withered)); herbicidal effect rating, B: Japanese bulrush ([12]; AAH 323 g/ha): 4 (Herbicidal rate of 70% or more and less than 90%); M: velvetleaf, herbicidal effect grade ([13]; 323 g/ha): 5 (Herbicidal rate of 90% or more (almost completely withered)); G: green foxtail, herbicidal effect grade ([14]; 323 g/ha): 4 (Herbicidal rate of 70% or more and less than 90%); Herbicidal effect, A: late watergrass [15, 19]: 5 (Herbicidal rate of 90% or more (almost completely withered)); H: barnyard grass, herbicidal effect grade [16, 19]: 0 (Herbicidal rate of 5% or less (almost no effect)); P: chickweed, herbicidal effect grade [17, 19]: 4 (Herbicidal rate of 70% or more and less than 90%)
